Laboratory results as given in ChEMBL document CHEMBL3588744, “Structure-Based Optimization of Naphthyridones into Potent ATAD2 Bromodomain Inhibitors” (J Med Chem, 2015).

Experiments:
[1] = biological target: T1, Bromodomain-containing protein 2 (Homo sapiens, UniProt P25440); test: Binding affinity to BRD2 in human HUT78 cells incubated for 45 mins by mass spectrometry based bromosphere chemoproteomic assay; format: cell-based
[2] = biological target: T2, ATPase family AAA domain-containing protein 2B (Homo sapiens, UniProt Q9ULI0); test: Binding affinity to ATAD2B (unknown origin) by BROMOscan panel based assay
T2 sequence (Q9ULI0 whole entry, the tested form may be a part): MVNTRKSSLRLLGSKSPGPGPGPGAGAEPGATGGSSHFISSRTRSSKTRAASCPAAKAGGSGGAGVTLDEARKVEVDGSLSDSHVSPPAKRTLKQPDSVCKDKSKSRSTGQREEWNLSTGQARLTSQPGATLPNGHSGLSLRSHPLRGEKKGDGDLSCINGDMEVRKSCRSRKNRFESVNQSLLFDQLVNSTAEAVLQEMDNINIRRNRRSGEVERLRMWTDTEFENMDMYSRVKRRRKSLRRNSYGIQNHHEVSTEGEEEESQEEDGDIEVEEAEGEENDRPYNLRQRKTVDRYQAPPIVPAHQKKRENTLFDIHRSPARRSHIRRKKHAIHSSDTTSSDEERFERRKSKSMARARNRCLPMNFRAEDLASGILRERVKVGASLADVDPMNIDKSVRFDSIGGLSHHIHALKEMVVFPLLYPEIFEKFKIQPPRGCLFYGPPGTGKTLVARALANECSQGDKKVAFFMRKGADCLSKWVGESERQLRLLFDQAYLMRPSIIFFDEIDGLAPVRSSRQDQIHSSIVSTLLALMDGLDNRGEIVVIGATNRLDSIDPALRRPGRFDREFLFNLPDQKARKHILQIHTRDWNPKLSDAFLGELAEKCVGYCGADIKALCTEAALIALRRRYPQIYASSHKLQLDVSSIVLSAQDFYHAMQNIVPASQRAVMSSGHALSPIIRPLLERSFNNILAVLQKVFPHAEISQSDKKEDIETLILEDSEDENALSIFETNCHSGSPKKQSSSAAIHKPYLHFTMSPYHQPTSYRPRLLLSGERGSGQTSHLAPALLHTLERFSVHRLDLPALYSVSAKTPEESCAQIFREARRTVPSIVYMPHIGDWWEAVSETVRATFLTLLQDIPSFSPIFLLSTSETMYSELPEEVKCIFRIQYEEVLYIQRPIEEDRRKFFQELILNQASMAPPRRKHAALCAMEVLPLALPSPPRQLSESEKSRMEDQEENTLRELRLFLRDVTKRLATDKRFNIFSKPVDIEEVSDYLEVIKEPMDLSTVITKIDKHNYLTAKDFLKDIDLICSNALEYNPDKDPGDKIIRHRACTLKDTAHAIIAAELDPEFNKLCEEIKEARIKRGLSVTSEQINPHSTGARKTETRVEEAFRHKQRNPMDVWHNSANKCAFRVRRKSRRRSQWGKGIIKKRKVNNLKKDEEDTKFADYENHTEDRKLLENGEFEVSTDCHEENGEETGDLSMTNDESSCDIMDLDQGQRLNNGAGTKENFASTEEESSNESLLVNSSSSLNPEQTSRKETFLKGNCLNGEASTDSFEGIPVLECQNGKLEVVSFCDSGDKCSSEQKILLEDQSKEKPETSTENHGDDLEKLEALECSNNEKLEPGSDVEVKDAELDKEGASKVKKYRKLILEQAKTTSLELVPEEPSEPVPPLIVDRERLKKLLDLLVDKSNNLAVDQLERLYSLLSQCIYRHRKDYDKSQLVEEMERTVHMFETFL

[3] = biological target: T3, Bromodomain testis-specific protein (Homo sapiens, UniProt Q58F21); test: Binding affinity to BRDt containing BD1 bromodomains (unknown origin) by TR-FRET assay
[4] = biological target: T2, ATPase family AAA domain-containing protein 2B; test: Binding affinity to ATAD2B in human HUT78 cells incubated for 45 mins by mass spectrometry based bromosphere chemoproteomic assay; format: cell-based
[5] = biological target: Chromatin remodeling regulator CECR2 (Homo sapiens, UniProt Q9BXF3); test: Binding affinity to CECR2 (unknown origin) by BROMOscan panel based assay
[6] = biological target: Bromodomain-containing protein 7 (Homo sapiens, UniProt Q9NPI1); test: Binding affinity to BRD7 in human HUT78 cells incubated for 45 mins by mass spectrometry based bromosphere chemoproteomic assay; format: cell-based
[7] = biological target: T4, Bromodomain-containing protein 4 (Homo sapiens, UniProt O60885); test: Binding affinity to BRD4 containing BD2 bromodomains (unknown origin) by TR-FRET assay
[8] = biological target: Tyrosine-protein kinase BAZ1B (Homo sapiens, UniProt Q9UIG0); test: Binding affinity to BAZ1B in human HUT78 cells incubated for 45 mins by mass spectrometry based bromosphere chemoproteomic assay; format: cell-based
[9] = biological target: Histone acetyltransferase KAT2B (Homo sapiens, UniProt Q92831); test: Binding affinity to KAT2B in human HUT78 cells incubated for 45 mins by mass spectrometry based bromosphere chemoproteomic assay; format: cell-based
Chain of Histone acetyltransferase KAT2B (Q92831 whole entry): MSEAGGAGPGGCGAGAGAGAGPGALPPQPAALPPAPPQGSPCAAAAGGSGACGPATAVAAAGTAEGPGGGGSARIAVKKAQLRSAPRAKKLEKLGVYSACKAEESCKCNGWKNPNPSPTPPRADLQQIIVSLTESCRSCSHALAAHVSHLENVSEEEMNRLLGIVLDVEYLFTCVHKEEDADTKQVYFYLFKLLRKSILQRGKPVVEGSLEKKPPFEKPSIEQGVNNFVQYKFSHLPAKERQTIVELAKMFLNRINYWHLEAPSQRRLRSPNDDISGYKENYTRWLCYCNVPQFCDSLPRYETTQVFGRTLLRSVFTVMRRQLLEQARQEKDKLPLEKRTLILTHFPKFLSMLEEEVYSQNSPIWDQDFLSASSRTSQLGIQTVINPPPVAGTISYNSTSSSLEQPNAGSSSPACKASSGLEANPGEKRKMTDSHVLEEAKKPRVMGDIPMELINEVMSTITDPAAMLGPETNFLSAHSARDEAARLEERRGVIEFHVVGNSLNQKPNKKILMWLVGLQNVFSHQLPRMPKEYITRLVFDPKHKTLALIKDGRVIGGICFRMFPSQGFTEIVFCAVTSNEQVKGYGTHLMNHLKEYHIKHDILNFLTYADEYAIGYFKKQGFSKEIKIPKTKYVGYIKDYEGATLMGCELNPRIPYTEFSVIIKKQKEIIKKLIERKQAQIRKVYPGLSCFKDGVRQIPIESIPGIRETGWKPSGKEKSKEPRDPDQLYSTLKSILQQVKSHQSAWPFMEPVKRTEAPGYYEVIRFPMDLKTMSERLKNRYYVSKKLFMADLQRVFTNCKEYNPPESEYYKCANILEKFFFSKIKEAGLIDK

Protein polybromo-1 = Protein polybromo-1 (Homo sapiens, UniProt Q86U86); test: Binding affinity to PBRM1 in human HUT78 cells incubated for 45 mins by mass spectrometry based bromosphere chemoproteomic assay; format: cell-based
[10] = biological target: T1, Bromodomain-containing protein 2; test: Binding affinity to BRD2 containing BD1 bromodomains (unknown origin) by TR-FRET assay
[11] = biological target: Transcription initiation factor TFIID subunit 1-like (Homo sapiens, UniProt Q8IZX4); test: Binding affinity to TAF1L (unknown origin) by BROMOscan panel based assay
Peregrin = biological target: T5, Peregrin (Homo sapiens, UniProt P55201); test: Binding affinity to BRPF1 in human HUT78 cells incubated for 45 mins by mass spectrometry based bromosphere chemoproteomic assay; format: cell-based
T5 sequence (P55201 whole entry): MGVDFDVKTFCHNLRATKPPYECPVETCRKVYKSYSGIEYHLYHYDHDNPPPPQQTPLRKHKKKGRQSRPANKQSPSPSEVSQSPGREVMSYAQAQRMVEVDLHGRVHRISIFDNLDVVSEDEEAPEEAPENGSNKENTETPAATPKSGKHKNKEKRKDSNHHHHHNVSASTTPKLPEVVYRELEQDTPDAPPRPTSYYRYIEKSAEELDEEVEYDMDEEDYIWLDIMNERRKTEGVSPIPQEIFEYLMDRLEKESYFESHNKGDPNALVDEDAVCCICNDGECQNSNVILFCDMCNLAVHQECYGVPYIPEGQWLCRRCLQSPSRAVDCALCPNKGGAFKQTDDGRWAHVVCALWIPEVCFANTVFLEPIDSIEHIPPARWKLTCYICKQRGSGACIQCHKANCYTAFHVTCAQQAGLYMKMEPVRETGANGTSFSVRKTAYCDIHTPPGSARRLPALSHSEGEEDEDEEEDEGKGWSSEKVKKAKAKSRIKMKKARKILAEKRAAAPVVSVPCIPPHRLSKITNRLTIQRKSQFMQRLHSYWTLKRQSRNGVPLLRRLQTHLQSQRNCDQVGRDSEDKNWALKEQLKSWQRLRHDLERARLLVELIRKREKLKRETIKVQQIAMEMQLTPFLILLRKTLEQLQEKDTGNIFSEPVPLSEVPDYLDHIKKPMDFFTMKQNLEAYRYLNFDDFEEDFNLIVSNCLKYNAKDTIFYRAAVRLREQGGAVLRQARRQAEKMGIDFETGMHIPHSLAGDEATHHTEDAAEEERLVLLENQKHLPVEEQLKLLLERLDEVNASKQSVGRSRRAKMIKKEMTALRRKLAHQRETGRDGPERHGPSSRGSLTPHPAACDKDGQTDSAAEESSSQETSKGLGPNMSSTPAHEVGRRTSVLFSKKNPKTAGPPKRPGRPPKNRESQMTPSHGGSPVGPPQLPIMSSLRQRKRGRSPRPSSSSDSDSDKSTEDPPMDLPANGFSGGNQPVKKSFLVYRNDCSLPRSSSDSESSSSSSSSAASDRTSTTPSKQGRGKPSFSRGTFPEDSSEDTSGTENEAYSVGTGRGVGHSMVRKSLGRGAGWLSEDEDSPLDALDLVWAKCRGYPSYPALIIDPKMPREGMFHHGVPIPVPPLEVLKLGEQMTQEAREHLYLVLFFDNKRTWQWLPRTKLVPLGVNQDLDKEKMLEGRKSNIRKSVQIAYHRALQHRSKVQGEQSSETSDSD

[12] = biological target: T6, Transcription initiation factor TFIID subunit 1 (Homo sapiens, UniProt P21675); test: Binding affinity to TAF1 in human HUT78 cells incubated for 45 mins by mass spectrometry based bromosphere chemoproteomic assay; format: cell-based
T6 sequence (P21675 whole entry): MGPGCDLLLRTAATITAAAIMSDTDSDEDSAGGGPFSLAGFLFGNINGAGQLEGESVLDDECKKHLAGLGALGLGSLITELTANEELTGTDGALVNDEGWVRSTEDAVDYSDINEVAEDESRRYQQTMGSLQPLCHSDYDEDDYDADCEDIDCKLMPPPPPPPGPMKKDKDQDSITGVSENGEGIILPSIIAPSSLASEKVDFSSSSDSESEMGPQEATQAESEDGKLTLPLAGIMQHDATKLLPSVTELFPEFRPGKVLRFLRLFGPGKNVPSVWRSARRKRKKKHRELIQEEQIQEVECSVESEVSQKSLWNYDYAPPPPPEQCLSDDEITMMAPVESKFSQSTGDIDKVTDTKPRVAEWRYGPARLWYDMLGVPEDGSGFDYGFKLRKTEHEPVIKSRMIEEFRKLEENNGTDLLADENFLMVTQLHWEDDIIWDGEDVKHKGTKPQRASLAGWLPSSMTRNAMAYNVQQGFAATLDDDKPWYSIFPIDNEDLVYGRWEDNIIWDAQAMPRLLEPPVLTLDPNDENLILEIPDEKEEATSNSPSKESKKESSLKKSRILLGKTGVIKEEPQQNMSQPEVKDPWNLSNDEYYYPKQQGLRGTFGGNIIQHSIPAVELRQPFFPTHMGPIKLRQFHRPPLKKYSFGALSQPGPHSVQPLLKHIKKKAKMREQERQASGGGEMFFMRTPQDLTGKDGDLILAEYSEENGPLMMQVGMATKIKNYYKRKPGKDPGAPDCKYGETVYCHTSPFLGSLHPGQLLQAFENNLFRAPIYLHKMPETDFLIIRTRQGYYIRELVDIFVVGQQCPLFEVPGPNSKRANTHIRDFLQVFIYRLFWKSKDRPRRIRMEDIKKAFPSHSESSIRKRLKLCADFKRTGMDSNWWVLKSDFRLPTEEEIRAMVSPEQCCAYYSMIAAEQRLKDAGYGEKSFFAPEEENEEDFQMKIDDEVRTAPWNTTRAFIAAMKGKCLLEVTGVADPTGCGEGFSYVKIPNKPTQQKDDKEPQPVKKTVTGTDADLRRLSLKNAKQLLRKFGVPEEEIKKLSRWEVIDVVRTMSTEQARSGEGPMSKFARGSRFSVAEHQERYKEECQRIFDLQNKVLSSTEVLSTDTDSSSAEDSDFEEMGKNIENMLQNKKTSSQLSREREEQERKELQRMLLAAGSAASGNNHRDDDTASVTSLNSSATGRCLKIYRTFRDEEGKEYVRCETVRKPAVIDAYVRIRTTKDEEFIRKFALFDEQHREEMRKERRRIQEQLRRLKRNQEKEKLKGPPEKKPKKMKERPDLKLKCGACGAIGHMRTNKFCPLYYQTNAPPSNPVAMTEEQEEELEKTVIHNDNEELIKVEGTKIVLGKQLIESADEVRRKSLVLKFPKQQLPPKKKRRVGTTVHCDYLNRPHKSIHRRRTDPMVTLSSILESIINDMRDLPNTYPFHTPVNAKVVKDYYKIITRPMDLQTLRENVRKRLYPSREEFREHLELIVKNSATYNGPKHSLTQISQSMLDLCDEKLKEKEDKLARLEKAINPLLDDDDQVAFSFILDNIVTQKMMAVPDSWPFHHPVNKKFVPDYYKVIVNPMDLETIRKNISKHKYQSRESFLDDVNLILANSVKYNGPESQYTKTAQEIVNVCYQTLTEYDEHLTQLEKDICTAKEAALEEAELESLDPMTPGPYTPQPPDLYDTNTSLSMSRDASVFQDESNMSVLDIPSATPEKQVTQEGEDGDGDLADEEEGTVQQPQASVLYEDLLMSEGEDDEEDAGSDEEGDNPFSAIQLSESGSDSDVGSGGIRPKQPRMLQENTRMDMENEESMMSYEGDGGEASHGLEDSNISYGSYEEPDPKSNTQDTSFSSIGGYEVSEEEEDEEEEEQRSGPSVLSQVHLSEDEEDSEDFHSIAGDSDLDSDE

[13] = biological target: T6, Transcription initiation factor TFIID subunit 1; test: Binding affinity to TAF1 (unknown origin) by BROMOscan panel based assay
[14] = biological target: T1, Bromodomain-containing protein 2; test: Binding affinity to BRD2 containing BD2 bromodomains (unknown origin) by TR-FRET assay
[15] = biological target: Bromodomain-containing protein 3 (Homo sapiens, UniProt Q15059); test: Binding affinity to BRD3 in human HUT78 cells incubated for 45 mins by mass spectrometry based bromosphere chemoproteomic assay; format: cell-based
[16] = biological target: SWI/SNF-related matrix-associated actin-dependent regulator of chromatin subfamily A member 4 (Homo sapiens, UniProt P51532); test: Binding affinity to SMARCA4 in human HUT78 cells incubated for 45 mins by mass spectrometry based bromosphere chemoproteomic assay; format: cell-based
[17] = biological target: T3, Bromodomain testis-specific protein; test: Binding affinity to BRDt containing BD2 bromodomains (unknown origin) by TR-FRET assay
[18] = biological target: T4, Bromodomain-containing protein 4; test: Binding affinity to BRD4 containing BD1 bromodomains (unknown origin) by TR-FRET assay

T1 sequence (P25440 whole entry, the tested form may be a part): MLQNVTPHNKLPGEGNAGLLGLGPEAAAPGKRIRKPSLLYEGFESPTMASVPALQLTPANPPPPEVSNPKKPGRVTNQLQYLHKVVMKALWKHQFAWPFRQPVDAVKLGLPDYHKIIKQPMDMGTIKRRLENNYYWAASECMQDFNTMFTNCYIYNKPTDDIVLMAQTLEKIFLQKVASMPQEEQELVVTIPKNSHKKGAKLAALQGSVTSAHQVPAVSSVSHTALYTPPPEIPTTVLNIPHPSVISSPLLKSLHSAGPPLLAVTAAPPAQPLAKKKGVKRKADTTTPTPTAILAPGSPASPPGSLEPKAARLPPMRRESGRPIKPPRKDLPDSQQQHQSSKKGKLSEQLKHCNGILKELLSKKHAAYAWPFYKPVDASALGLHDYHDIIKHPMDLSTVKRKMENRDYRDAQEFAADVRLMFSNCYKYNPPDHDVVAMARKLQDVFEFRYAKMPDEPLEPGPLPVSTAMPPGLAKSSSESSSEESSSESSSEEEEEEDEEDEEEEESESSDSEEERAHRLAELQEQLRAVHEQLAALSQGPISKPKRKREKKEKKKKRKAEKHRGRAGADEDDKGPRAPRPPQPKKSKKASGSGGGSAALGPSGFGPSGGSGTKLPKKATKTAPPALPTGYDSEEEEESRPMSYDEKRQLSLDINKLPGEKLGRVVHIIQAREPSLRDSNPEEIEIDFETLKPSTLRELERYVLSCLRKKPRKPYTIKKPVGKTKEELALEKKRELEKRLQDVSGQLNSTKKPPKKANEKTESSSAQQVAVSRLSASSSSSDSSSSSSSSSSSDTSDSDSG

Kd [1]: 20 µM
Ki [2]: 0.0398 µM
IC50 [3]: > 50.1 µM
Kd [4]: 0.1 µM
Ki [5]: 0.794 µM
Kd [6]: 31.6 µM
IC50 [7]: > 501 µM
Kd [8]: > 100 µM
Kd [9]: > 100 µM
Kd (Protein polybromo-1): > 100 µM
IC50 [10]: > 50.1 µM
Ki [11]: 0.126 µM
Kd (Peregrin): > 100 µM
Kd [12]: 1.26 µM
Ki [13]: 0.0501 µM
IC50 [14]: > 50.1 µM
Kd [15]: > 100 µM
Kd [16]: 20 µM
IC50 [17]: > 50.1 µM
IC50 [18]: 79.4 µM
Structure (SMILES): Cc1cncc(-c2cnc(N[C@@H]3CCN(C)C[C@H]3OCC3CCS(=O)(=O)CC3)c3[nH]c(=O)c(C)cc23)c1
